Results published in patent US12285418B1, “2-(5-aminopyridin-2-yl)-N-benzylacetamides and use thereof in the treatment of acute myeloid leukemia” (University of Jeddah, priority 2024, dated 2025).

Key:
Type in all cases: cell-based
[1] = system: MV4-11 cells; assay: Cell viability assay (CellTiter-Blue), MV4-11; settings: Homo sapiens, 48 h incubation, mean±SD, read-out: IC50 against MV4-11 cells
Procedure: (§1) Cell viability was determined using the CellTiter®-Blue Cell Viability Assay kit (Promega, Madison, WI, USA) as previously described (Alkhatabi et al., 2022). Approximately 10^4 cells were counted, plated in a 96-well plate in the presence of test compounds ranging from 0.01 to 40 μM in quadruplicate, and incubated for 48 h at 37° C. in a humidified incubator. After the incubation period was completed, 20 μL of CellTiter®-Blue Cell Viability Assay reagent was added to each well and incubated for an additional 2 h for fluorescence development. Florescence was measured at Ex/Em 540/590 on a SpectraMax® i3 Multi-Mode microplate reader (Molecular Devices, LLC, San Jose, CA, USA) and plotted against the drug concentration to determine the IC50 of the test compounds. The IC50 was obtained by a nonlinear regression model using GraphPad Prism 10.1.1 (GraphPad Software, Inc., USA).
(§2) The half-maximal inhibitory concentration (IC50) of each drug was calculated using the GraphPad Prism software version 10.1.1. Flow cytometric data were analyzed using Diva software provided with the BD FACSCanto II Clinical Flow Cytometry System (BD Biosciences, USA). Student's paired t-test and Two-way ANOVA were used to compare data points. Data are presented as mean+SD, and at least three independent experiments were performed. […]

[2] = system: HL60 cells; assay: Cell viability assay (CellTiter-Blue), HL60; settings: Homo sapiens, HL-60, 48 h incubation, mean±SD, read-out: IC50 against HL60 cells
Procedure: as §1, §2

[3] = system: K562 cells; assay: Cell viability assay (CellTiter-Blue), K562; settings: Homo sapiens, 48 h incubation, mean±SD, read-out: IC50 against K562 cells
Procedure: as §1, §2

[4] = system: KG1a cells; assay: Cell viability assay (CellTiter-Blue), KG1a; settings: Homo sapiens, KG-1a, 48 h incubation, mean±SD, read-out: IC50 against KG1a cells
Procedure: as §1, §2

Measured: IC50

O=C(Cc1ccc(NC(=O)c2ccccc2O)cn1)NCc1ccccc1 [Compound III, N-(6-(2-(Benzylamino)-2-oxoethyl)pyridin-3-yl)-2-hydroxybenzamide]
> 10 µM: all assays above

O=C(Cc1ccc(/N=C2\OC(=O)c3ccccc32)cn1)NCc1ccccc1 [Compound II, (Z)-N-benzyl-2-(5-((3-oxoisobenzofuran-1 (3H)-ylidene)amino)pyridin-2-yl) acetamide]
> 10 µM: all assays above
